PubChem BioAssay AID330 (DTP/NCI, 2004)
“And” between values parts separate entries of the source, which are not always exact repeats. Equal values may be shown once. Toxic doses and inconclusive results are not listed.

Test system: P388 leukemia ip, CD2F1 mice, survival T/C
Assay: NCI In Vivo Anticancer Drug Screen. Data for tumor model P388 Leukemia (intraperitoneal) in CD2F1 (CDF1) mice
Conditions: endpoint: median survival time, higher = longer survival
How it was run: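 Mice carrying the transplanted tumor received test compound or vehicle. Survival was recorded in each group, and the value is the treated-group measurement divided by that of the vehicle-treated control group.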

[1] = dose: 50.0 mg/kg/injection, schedule: Q01DX009 (ip), vehicle: saline with Tween-80
[2] = dose: 100.0 mg/kg/injection, schedule: Q01DX009 (ip), vehicle: saline with Tween-80
[3] = dose: 50.0 mg/kg/injection, schedule: Q01DX005 (ip), vehicle: saline with Tween-80

`CN1CC2(c3ccccc3)CN(C)CC(c3ccccc3)(C1)C2=O` was tested, and the T/C (dose: 6.25 mg/kg/injection, schedule: Q01DX009 (ip), vehicle: saline with Tween-80) was 100 % of control and the T/C (dose: 12.5 mg/kg/injection, schedule: Q01DX009 (ip), vehicle: saline with Tween-80) was 86 % of control.
For `c1ccc(N(c2ccccc2)c2nnnn2-c2ccccc2)cc1`, the T/C (dose: 25.0 mg/kg/injection, schedule: Q01DX009 (ip), vehicle: saline with Tween-80) was 98 % of control, the T/C [1] was 94 % of control and the T/C [2] was 89 % of control.
For `CCc1nn(Cc2ccccc2)c2nc(C)c(CCc3ccccc3)c(Cl)c12`, the T/C (dose: 60.0 mg/kg/injection, schedule: Q01DX005 (ip), vehicle: Klucel (hydroxypropylcellulose) (HPC)) was 92 % of control, the T/C (dose: 120.0 mg/kg/injection, schedule: Q01DX005 (ip), vehicle: Klucel (hydroxypropylcellulose) (HPC)) was 91 % of control and the T/C (dose: 240.0 mg/kg/injection, schedule: Q01DX005 (ip), vehicle: Klucel (hydroxypropylcellulose) (HPC)) was 94 % of control.
`CCOC(=O)c1cn(C)c(=O)c(Br)c1C#N` was tested, and the T/C [3] was 92 % of control, the T/C (dose: 100.0 mg/kg/injection, schedule: Q01DX005 (ip), vehicle: saline with Tween-80) was 96 % of control and the T/C (dose: 200.0 mg/kg/injection, schedule: Q01DX005 (ip), vehicle: saline with Tween-80) was 93 % of control.
With `CN(C)/C=C(/N=C(C#N)C#N)C1OCCO1` the T/C (dose: 12.5 mg/kg/injection, schedule: Q01DX005 (ip), vehicle: saline with Tween-80) was 100 % of control, the T/C (dose: 25.0 mg/kg/injection, schedule: Q01DX005 (ip), vehicle: saline with Tween-80) was 112 % of control and the T/C [3] was 117 % of control.
For `CC(=O)Oc1c[nH]c(=O)[nH]c1=O`, the T/C (dose: 25.0 mg/kg/injection, schedule: Q01DX009 (ip), vehicle: distilled water + Tween-80) was 103 % of control and 97 % of control, the T/C (dose: 50.0 mg/kg/injection, schedule: Q01DX009 (ip), vehicle: distilled water + Tween-80) was 100 % of control and 97 % of control and the T/C (dose: 100.0 mg/kg/injection, schedule: Q01DX009 (ip), vehicle: distilled water + Tween-80) was 102 % of control and 103 % of control and 112 % of control. For the same molecule, the T/C (dose: 200.0 mg/kg/injection, schedule: Q01DX009 (ip), vehicle: distilled water + Tween-80) was 109 % of control and 114 % of control and 119 % of control and the T/C (dose: 400.0 mg/kg/injection, schedule: Q01DX009 (ip), vehicle: distilled water + Tween-80) was 103 % of control and 123 % of control.
In the case of `COc1ccc(C2CC(=O)NC(NC#N)=N2)c(O)c1` (stereo not drawn), the T/C (dose: 50.0 mg/kg/injection, schedule: Q01DX009 (ip), vehicle: saline) is reported as 104 % of control, the T/C (dose: 100.0 mg/kg/injection, schedule: Q01DX009 (ip), vehicle: saline) is reported as 102 % of control and the T/C (dose: 200.0 mg/kg/injection, schedule: Q01DX009 (ip), vehicle: saline) is reported as 100 % of control.
In the case of `Nc1nc(-c2ccccc2)c(-c2ccccc2)n1C(=O)NCCCl`, the T/C (dose: 12.5 mg/kg/injection, schedule: Q04DX002 (ip), vehicle: saline with Tween-80) is reported as 114 % of control, the T/C (dose: 25.0 mg/kg/injection, schedule: Q04DX002 (ip), vehicle: saline with Tween-80) is reported as 113 % of control and the T/C (dose: 50.0 mg/kg/injection, schedule: Q04DX002 (ip), vehicle: saline with Tween-80) is reported as 113 % of control.
In the case of `COc1ccc2c(C(=O)c3ccccc3)c3[n+](cc2c1OC)CCc1cc2c(cc1-3)OCO2`, the T/C (dose: 6.25 mg/kg/injection, schedule: Q01DX005 (ip), vehicle: Klucel (hydroxypropylcellulose) (HPC)) is reported as 103 % of control and the T/C (dose: 12.5 mg/kg/injection, schedule: Q01DX005 (ip), vehicle: Klucel (hydroxypropylcellulose) (HPC)) is reported as 103 % of control.
In the case of `Cc1cc(=NCCCN(C)C)c2ccc3c(ccc4c(=NCCCN(C)C)cc(C)n(O)c43)c2n1O`, the T/C (dose: 6.25 mg/kg/injection, schedule: Q01DX009 (ip), vehicle: water) is reported as 106 % of control and 111 % of control, the T/C (dose: 12.5 mg/kg/injection, schedule: Q01DX009 (ip), vehicle: distilled water + alcohol) is reported as 102 % of control and the T/C (dose: 12.5 mg/kg/injection, schedule: Q01DX009 (ip), vehicle: water) is reported as 100 % of control and 103 % of control and 109 % of control. For the same molecule, the T/C (dose: 25.0 mg/kg/injection, schedule: Q01DX009 (ip), vehicle: distilled water + alcohol) was 102 % of control, the T/C (dose: 25.0 mg/kg/injection, schedule: Q01DX009 (ip), vehicle: water) was 108 % of control and 116 % of control and the T/C (dose: 50.0 mg/kg/injection, schedule: Q01DX009 (ip), vehicle: distilled water + alcohol) was 105 % of control.
With `CCOC(=O)c1c[nH]n2ccnc12` the T/C (dose: 100.0 mg/kg/injection, schedule: Q04DX002 (ip), vehicle: saline with Tween-80) was 100 % of control and the T/C (dose: 200.0 mg/kg/injection, schedule: Q04DX002 (ip), vehicle: saline with Tween-80) was 103 % of control.
With `CCOC(=O)COc1ccc(/C=C(\C)[N+](=O)[O-])c2ccccc12` the T/C [1] was 99 % of control, the T/C [2] was 91 % of control and the T/C (dose: 200.0 mg/kg/injection, schedule: Q01DX009 (ip), vehicle: saline with Tween-80) was 100 % of control.
`CCCCc1ccc(-n2c(C)c(COC(=O)NC)c(COC(=O)NC)c2C)cc1` was tested, and the T/C (dose: 12.5 mg/kg/injection, schedule: Q01DX009 (ip), vehicle: Klucel (hydroxypropylcellulose) (HPC)) was 172 % of control and 190 % of control and the T/C (dose: 25.0 mg/kg/injection, schedule: Q01DX009 (ip), vehicle: Klucel (hydroxypropylcellulose) (HPC)) was 152 % of control and 190 % of control.
`O=C(O)CCOCCCOCCC(=O)O` was tested, and the T/C (dose: 50.0 mg/kg/injection, schedule: Q01DX005 (ip), vehicle: saline) was 95 % of control, the T/C (dose: 100.0 mg/kg/injection, schedule: Q01DX005 (ip), vehicle: saline) was 98 % of control and the T/C (dose: 200.0 mg/kg/injection, schedule: Q01DX005 (ip), vehicle: saline) was 100 % of control.
